Experimental data published in US12091411B2, “IRAK degraders and uses thereof” (Kymera Therapeutics, Inc., priority 2022, dated 2024).
Like-named read-outs stand apart in the source and are kept apart here.

Target: T1, IRAK4 (Homo sapiens, UniProt Q9NWZ3)
T1 construct: Degradation of IRAK4 in OCI-LY10 was quantitatively measured using Meso Scale Discovery technology; endogenous in cells; host or cells: OCI-LY10
T1 sequence (Q9NWZ3 1-460): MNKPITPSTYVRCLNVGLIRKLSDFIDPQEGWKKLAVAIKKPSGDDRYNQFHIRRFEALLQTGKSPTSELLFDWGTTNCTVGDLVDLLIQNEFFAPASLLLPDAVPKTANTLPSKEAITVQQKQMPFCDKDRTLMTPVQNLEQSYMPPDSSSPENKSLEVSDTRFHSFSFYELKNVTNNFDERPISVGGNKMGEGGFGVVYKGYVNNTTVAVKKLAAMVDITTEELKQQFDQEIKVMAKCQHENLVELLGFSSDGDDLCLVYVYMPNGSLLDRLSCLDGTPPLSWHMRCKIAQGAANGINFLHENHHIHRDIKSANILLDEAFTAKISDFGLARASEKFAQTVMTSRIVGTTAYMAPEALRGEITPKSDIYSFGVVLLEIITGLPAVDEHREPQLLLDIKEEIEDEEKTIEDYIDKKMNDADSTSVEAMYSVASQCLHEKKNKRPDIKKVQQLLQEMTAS
Assay: IRAK4 MSD Degradation in OCI-LY10
Format: cell-based
Conditions: OCI-LY10 cells, MSD
Method in brief: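 OCI-LY10 cells exposed to 8-point 1:3 compound series (top 1 to 10 μM) for 4 to 24 h at 37 °C, 5% CO2. Lysate IRAK4 quantified by MSD sandwich immunoassay. DC50 from three-parameter logistic fit, binned A (<0.01 μM) to D (>0.2 μM or not tested).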

[1] = 4 hrs incubation, read-out: IRAK4 degradation in OCI-LY10 at 4 hrs: DC50
[2] = 24 hrs incubation, read-out: IRAK4 degradation in OCI-LY10 at 24 hrs: DC50

| Compound | DC50 [1] [nM] | DC50 [2] [nM] |
| --- | --- | --- |
| Cn1c(=O)n(C2CCC(=O)NC2=O)c2cccc(C#CCN3CCN(C[C@H]4CC[C@H](n5cc(NC(=O)c6cnn7ccc(N8C[C@H]9C[C@@H]8CO9)nc67)c(F)n5)CC4)CC3)c21 (some centres unmarked) [I-281] | > 200 | > 200 |
| CC1CCN(c2ccn3ncc(C(=O)Nc4cn([C@H]5CC[C@H](CN6CCN(CC#Cc7cccc8c7n(C)c(=O)n8C7CCC(=O)NC7=O)CC6)CC5)nc4C(F)F)c3n2)CC1 (some centres unmarked) [I-282] | > 200 | 10 to 100 |
| Cn1c(=O)n(C2CCC(=O)NC2=O)c2cccc(C#CCN3CCN(C[C@H]4CC[C@H](n5cc(NC(=O)c6cnn7ccc(N8CCCCCC8)nc67)c(C(F)F)n5)CC4)CC3)c21 (some centres unmarked) [I-283] | > 200 | 10 to 100 |
| Cn1c(=O)n(C2CCC(=O)NC2=O)c2cccc(C#CCN3CCN(C[C@H]4CC[C@H](n5cc(NC(=O)c6cnn7cccnc67)c(C(C)(C)O)n5)CC4)CC3)c21 (some centres unmarked) [I-284] | > 200 | > 200 |
| Cn1c(=O)n(C2CCC(=O)NC2=O)c2cccc(C#CCN3CCN(C[C@H]4CC[C@H](n5cc(NC(=O)c6cnn7ccc(N8CCC8)nc67)c(C(C)(C)O)n5)CC4)CC3)c21 (some centres unmarked) [I-285] | > 200 | > 200 |
| Cn1c(=O)n(C2CCC(=O)NC2=O)c2cccc(C#CCN3CCN(C[C@H]4CC[C@H](n5cc(NC(=O)c6cnn7ccc(N8CCOC9(CC9)C8)nc67)c(C(F)F)n5)CC4)CC3)c21 (some centres unmarked) [I-286] | > 200 | < 10 |
| Cn1c(=O)n(C2CCC(=O)NC2=O)c2cccc(C#CCN3CCN(C[C@H]4CC[C@H](n5cc(NC(=O)c6cnn7ccc(N8CCOC9(CCC9)C8)nc67)c(C(F)F)n5)CC4)CC3)c21 (some centres unmarked) [I-287] | > 200 | < 10 |
| CC1CN(c2ccn3ncc(C(=O)Nc4cn([C@H]5CC[C@H](CN6CCN(CC#Cc7cccc8c7n(C)c(=O)n8C7CCC(=O)NC7=O)CC6)CC5)nc4C(F)F)c3n2)CCO1 (some centres unmarked) [I-288] | > 200 | > 200 |
| CC1CN(c2ccn3ncc(C(=O)Nc4cn([C@H]5CC[C@H](CN6CCN(CC#Cc7cccc8c7n(C)c(=O)n8C7CCC(=O)NC7=O)CC6)CC5)nc4C(F)F)c3n2)CC(C)O1 (some centres unmarked) [I-289] | > 200 | > 200 |
| Cn1c(=O)n(C2CCC(=O)NC2=O)c2cccc(C#CCN3CCN(C[C@H]4CC[C@H](n5cc(NC(=O)c6cnn7ccc(N8C[C@H]9CC[C@@H](C8)O9)nc67)c(C(F)F)n5)CC4)CC3)c21 (some centres unmarked) [I-290] | > 200 | < 10 |
| Cn1c(=O)n(C2CCC(=O)NC2=O)c2cccc(C#CCN3CCN(C[C@H]4CC[C@H](n5cc(NC(=O)c6cnn7ccc(N8CCCOCC8)nc67)c(C(F)F)n5)CC4)CC3)c21 (some centres unmarked) [I-291] | > 200 | < 10 |
| Cc1ccc(-c2nn([C@H]3CC[C@H](CN(C)C4CCN(c5cccc6c5n(C)c(=O)n6C5CCC(=O)NC5=O)CC4)CC3)cc2NC(=O)c2cnn3cccnc23)nc1 (some centres unmarked) [I-292] | > 200 | < 10 |
| Cc1ccc(-c2nn([C@H]3CC[C@H](CN(C)C4CCN(c5cccc6c5n(C)c(=O)n6C5CCC(=O)NC5=O)CC4)CC3)cc2NC(=O)c2cnn3cccnc23)c(F)c1 (some centres unmarked) [I-293] | > 200 | > 200 |
| Cn1c(=O)n(C2CCC(=O)NC2=O)c2cccc(C#CCN3CCN(C[C@H]4CC[C@H](n5cc(NC(=O)c6cnn7ccc(N8CCSCC8)nc67)c(C(F)F)n5)CC4)CC3)c21 (some centres unmarked) [I-294] | > 200 | < 10 |
| Cn1c(=O)n(C2CCC(=O)NC2=O)c2cccc(C#CCN3CCN(C[C@H]4CC[C@H](n5cc(NC(=O)c6cnn7ccc(N8CCS(=O)(=O)CC8)nc67)c(C(F)F)n5)CC4)CC3)c21 (some centres unmarked) [I-295] | > 200 | < 10 |
| Cn1c(=O)n(C2CCC(=O)NC2=O)c2cccc(C#CCN3CCN(C[C@H]4CC[C@H](n5cc(NC(=O)c6cnn7ccc(N8CCC9(CC8)COC9)nc67)c(C(F)F)n5)CC4)CC3)c21 (some centres unmarked) [I-296] | 10 to 100 | > 200 |
| CN1CC2(CCN(c3ccn4ncc(C(=O)Nc5cn([C@H]6CC[C@H](CN7CCN(CC#Cc8cccc9c8n(C)c(=O)n9C8CCC(=O)NC8=O)CC7)CC6)nc5C(F)F)c4n3)CC2)C1 (some centres unmarked) [I-297] | > 200 | > 200 |

| Compound | DC50 [1] [nM] | DC50 [2] [nM] |
| --- | --- | --- |
| Cn1c(=O)n(C2CCC(=O)NC2=O)c2cccc(C#CCN3CCN(C[C@H]4CC[C@H](n5cc(NC(=O)c6cnn7ccc(C8CCOCC8)nc67)c(C(F)F)n5)CC4)CC3)c21 (some centres unmarked) [I-298] | > 200 | < 10 |
| Cn1c(=O)n(C2CCC(=O)NC2=O)c2cccc(C#CCN3CCN(C[C@H]4CC[C@H](n5cc(NC(=O)c6cnn7ccc(N8CCNCC8)nc67)c(C(F)F)n5)CC4)CC3)c21 (some centres unmarked) [I-299] | > 200 | < 10 |
| CN1CCN(c2ccn3ncc(C(=O)Nc4cn([C@H]5CC[C@H](CN6CCN(CC#Cc7cccc8c7n(C)c(=O)n8C7CCC(=O)NC7=O)CC6)CC5)nc4C(F)F)c3n2)CC1 (some centres unmarked) [I-300] | > 200 | < 10 |
| Cn1c(=O)n(C2CCC(=O)NC2=O)c2cccc(C#CCN3CCN(C[C@H]4CC[C@H](n5cc(NC(=O)c6cnn7ccc(C8COCCN8)nc67)c(C(F)F)n5)CC4)CC3)c21 (some centres unmarked) [I-301] | > 200 | > 200 |
| CN1CCOCC1c1ccn2ncc(C(=O)Nc3cn([C@H]4CC[C@H](CN5CCN(CC#Cc6cccc7c6n(C)c(=O)n7C6CCC(=O)NC6=O)CC5)CC4)nc3C(F)F)c2n1 (some centres unmarked) [I-302] | > 200 | > 200 |
| Cn1c(=O)n(C2CCC(=O)NC2=O)c2cccc(C#CCOC3CCN(C[C@H]4CC[C@H](n5cc(NC(=O)c6cnn7ccc(N8CCSCC8)nc67)c(C(F)F)n5)CC4)CC3)c21 (some centres unmarked) [I-303] | > 200 | < 10 |
| Cn1c(=O)n(C2CCC(=O)NC2=O)c2cccc(C#CCOC3CCN(C[C@H]4CC[C@H](n5cc(NC(=O)c6cnn7ccc(N8CCS(=O)(=O)CC8)nc67)c(C(F)F)n5)CC4)CC3)c21 (some centres unmarked) [I-304] | > 200 | < 10 |
| Cn1c(=O)n(C2CCC(=O)NC2=O)c2cccc(C#CCOC3CCN(C[C@H]4CC[C@H](n5cc(NC(=O)c6cnn7ccc(N8CCC9(CC8)COC9)nc67)c(C(F)F)n5)CC4)CC3)c21 (some centres unmarked) [I-305] | > 200 | > 200 |
| CN1CC2(CCN(c3ccn4ncc(C(=O)Nc5cn([C@H]6CC[C@H](CN7CCC(OCC#Cc8cccc9c8n(C)c(=O)n9C8CCC(=O)NC8=O)CC7)CC6)nc5C(F)F)c4n3)CC2)C1 (some centres unmarked) [I-306] | > 200 | > 200 |
| Cn1c(=O)n(C2CCC(=O)NC2=O)c2cccc(C#CCOC3CCN(C[C@H]4CC[C@H](n5cc(NC(=O)c6cnn7ccc(C8CCOCC8)nc67)c(C(F)F)n5)CC4)CC3)c21 (some centres unmarked) [I-307] | > 200 | < 10 |
| Cn1c(=O)n(C2CCC(=O)NC2=O)c2cccc(C#CCOC3CCN(C[C@H]4CC[C@H](n5cc(NC(=O)c6cnn7ccc(N8CCNCC8)nc67)c(C(F)F)n5)CC4)CC3)c21 (some centres unmarked) [I-308] | > 200 | < 10 |
| CN1CCN(c2ccn3ncc(C(=O)Nc4cn([C@H]5CC[C@H](CN6CCC(OCC#Cc7cccc8c7n(C)c(=O)n8C7CCC(=O)NC7=O)CC6)CC5)nc4C(F)F)c3n2)CC1 (some centres unmarked) [I-309] | > 200 | < 10 |
| Cn1c(=O)n(C2CCC(=O)NC2=O)c2cccc(C#CCOC3CCN(C[C@H]4CC[C@H](n5cc(NC(=O)c6cnn7ccc(C8COCCN8)nc67)c(C(F)F)n5)CC4)CC3)c21 (some centres unmarked) [I-310] | > 200 | > 200 |
| CN1CCOCC1c1ccn2ncc(C(=O)Nc3cn([C@H]4CC[C@H](CN5CCC(OCC#Cc6cccc7c6n(C)c(=O)n7C6CCC(=O)NC6=O)CC5)CC4)nc3C(F)F)c2n1 (some centres unmarked) [I-311] | > 200 | > 200 |
| Cn1c(=O)n(C2CCC(=O)NC2=O)c2cccc(N3CCC(N(CC(F)F)C[C@H]4CC[C@H](n5cc(NC(=O)c6cnn7cccnc67)c(C(F)F)n5)CC4)CC3)c21 (some centres unmarked) [I-312] | > 200 | > 200 |
| Cn1c(=O)n(C2CCC(=O)NC2=O)c2cccc(N3CCC(N(CC(F)(F)F)C[C@H]4CC[C@H](n5cc(NC(=O)c6cnn7cccnc67)c(C(F)F)n5)CC4)CC3)c21 (some centres unmarked) [I-313] | > 200 | > 200 |
| CN(Cc1ccc(-n2cc(NC(=O)c3cnn4cccnc34)c(C(F)F)n2)cc1)C1CCN(c2cccc3c2n(C)c(=O)n3C2CCC(=O)NC2=O)CC1 (centres unmarked) [I-314] | > 200 | > 200 |
